Drawing on patent US12673961B2 (Agios Pharmaceuticals, Inc., priority 2022, dated 2026), this text covers AC50 for 23 compounds.

One experiment deals with T1, human PAH with the R408W mutation (Homo sapiens, UniProt P00439, R408W).
T1 construct: expressed in transfected cells
T1 sequence (P00439 1-452 R408W): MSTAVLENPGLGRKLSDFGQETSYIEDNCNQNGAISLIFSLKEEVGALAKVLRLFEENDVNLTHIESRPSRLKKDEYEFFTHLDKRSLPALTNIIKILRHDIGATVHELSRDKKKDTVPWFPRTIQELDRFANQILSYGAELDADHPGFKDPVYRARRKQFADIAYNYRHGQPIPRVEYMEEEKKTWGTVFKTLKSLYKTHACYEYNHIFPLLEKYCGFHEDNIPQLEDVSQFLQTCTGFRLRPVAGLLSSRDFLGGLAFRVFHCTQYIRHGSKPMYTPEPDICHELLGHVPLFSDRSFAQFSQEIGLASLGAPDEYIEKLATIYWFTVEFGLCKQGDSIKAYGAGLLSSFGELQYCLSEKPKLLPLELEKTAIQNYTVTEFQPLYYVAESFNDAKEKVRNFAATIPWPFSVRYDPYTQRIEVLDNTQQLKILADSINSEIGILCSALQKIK
As to the kind of experiment: Cell Based Phenylalanine Flux Assay.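 Further: Ten-point dose curve from 2-fold serial dilutions, run in duplicate at 0.5% DMSO final, tracer step used 20 µM sepiapterin and 800 µM labeled phenylalanine.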 On the set-up: scale not given here. The settings on record: A375 cells expressing R408W PAH; 24 hrs with compound, then 20 μM sepiapterin and 800 μM 13C9,15N-Phenylalanine for 4 hours; 13C-Tyrosine in media by LC-MS; average where tested multiple times.
Broadly, the AC50 is the concentration giving half of the maximal activity seen. Take `Cc1cccn2nc(C3c4nc[nH]c4CCN3C(=O)c3ccnn3C)cc12` (centres unmarked): the half-maximal activity concentration (AC50) entry is given as “E, E”.

Take `Cn1cnc(-c2nc(C(F)F)c(C(=O)N3CCc4[nH]cnc4[C@H]3c3cc4ccccn4n3)o2)c1` (single isomer, unassigned): the AC50 entry is “E, E”.

Still in this experiment, the particulars now being: A375 cells expressing R408W PAH; 24 hrs with compound, then 20 μM sepiapterin and 800 μM 13C9,15N-Phenylalanine for 4 hours; 13C-Tyrosine in media by LC-MS; average where tested multiple times; read-out: AC50.
Regarding `Cc1n[nH]cc1-c1nnc(C(=O)N2CCc3[nH]cnc3[C@H]2c2cc3c(C)cccn3n2)o1` (single isomer, unassigned), the half-maximal activity concentration (AC50) fell in the range of 1000 to 5000 nM.

As to `COc1cccn2nc([C@@H]3c4nc[nH]c4CCN3C(=O)c3nnc(-c4cnn(C(F)(F)F)c4)o3)cc12` (single isomer, unassigned), the half-maximal activity concentration (AC50) fell in the range of 1000 to 5000 nM.

For the compound `COc1cccn2nc(C3c4nc[nH]c4CCN3C(=O)c3cc(C(C)(C)C)nn3C)cc12` (centres unmarked), the concentration at half-maximal activity (AC50) was more than 5000 nM.

For `c1ccn2nc(C3c4nc[nH]c4CCN3c3nnc(C4CCC4)o3)cc2c1` (single isomer, unassigned), the AC50 was 1000 to 5000 nM.

Staying with this experiment, now noted: A375 cells expressing human R408W PAH; 24 hrs compound incubation; 13C-Tyrosine by LC-MS; average where tested multiple times; read-out: AC50.
For `O=C(c1ocnc1C(F)F)N1CCc2[nH]cnc2[C@H]1c1cc2cccc(Cl)n2n1` [Example 958, (S)-(4-(7-chloropyrazolo [1,5-a]pyridin-2-yl)-6,7-dihydro-1H-imidazo[4,5-c]pyridin-5(4H)-yl)(4-(difluoromethyl)oxazol-5-yl)methanone], the AC50 is less than 500 nM.

For the compound `CC(C)(O)c1nc(C(F)(F)F)c(C(=O)N2CCc3[nH]cnc3[C@H]2c2cc3c(F)cccn3n2)o1` [Example 744, (S)-(4-(4-fluoropyrazolo[1,5-a]pyridin-2-yl)-6,7-dihydro-1H-imidazo[4,5-c]pyridin-5(4H)-yl)(2-(2-hydroxypropan-2-yl)-4-(trifluoromethyl)oxazol-5-yl)methanone], the concentration at half-maximal activity (AC50) is less than 500 nM.

In the case of `O=C(c1ccnn1C(F)F)N1CCc2[nH]cnc2[C@@H]1c1cc2ccc(C(F)(F)F)cn2n1` [Example 1139, (R)-(1-(difluoromethyl)-1H-pyrazol-5-yl)(4-(6-(trifluoromethyl)pyrazolo [1,5-a]pyridin-2-yl)-6,7-dihydro-1H-imidazo[4,5-c]pyridin-5(4H)-yl)methanone], the concentration at half-maximal activity (AC50) is 1000 to 5000 nM.

Regarding `Cn1nc(C(F)F)nc1C(=O)N1CCc2[nH]cnc2C1c1cc2c(Cl)cccn2n1` (stereo in doubt) [Example 781, (R)-(4-(4-chloropyrazolo [1,5-a]pyridin-2-yl)-6,7-dihydro-1H-imidazo[4,5-c]pyridin-5(4H)-yl)(3-(difluoromethyl)-1-methyl-1H-1,2,4-triazol-5-yl)methanone], the AC50 fell in the range of 1000 to 5000 nM.

For the compound `C[C@@H](O)c1nc(C(F)F)c(C(=O)N2CCc3[nH]cnc3[C@@H]2c2cc3ccccn3n2)o1` [Example 691, (4-(difluoromethyl)-2-((R)-1-hydroxyethyl)oxazol-5-yl)((R)-4-(pyrazolo[1,5-a]pyridin-2-yl)-6,7-dihydro-1H-imidazo[4,5-c]pyridin-5(4H)-yl)methanone], the AC50 is more than 5000 nM.

Regarding `O=C(c1nnc(-c2cccnc2)o1)N1CCc2[nH]cnc2[C@@H]1c1cc2cccc(C(F)(F)F)n2n1` [Example 1341, (R)-(5-(pyridin-3-yl)-1,3,4-oxadiazol-2-yl)(4-(7-(trifluoromethyl)pyrazolo [1,5-a]pyridin-2-yl)-6,7-dihydro-1H-imidazo[4,5-c]pyridin-5(4H)-yl)methanone], the AC50 was 1000 to 5000 nM.

`Cc1ncccc1-c1nnc(C(=O)N2CCc3[nH]cnc3[C@@H]2c2cc3c(F)cccn3n2)o1` [Example 1329, (R)-(4-(4-fluoropyrazolo [1,5-a]pyridin-2-yl)-6,7-dihydro-1H-imidazo[4,5-c]pyridin-5(4H)-yl)(5-(2-methylpyridin-3-yl)-1,3,4-oxadiazol-2-yl)methanone]: the AC50 is more than 5000 nM.

Take `O=C(c1nnc(C2CC2)o1)N1CCc2[nH]cnc2[C@H]1c1cc2cccc(F)n2n1` [Example 1246, (S)-(5-cyclopropyl-1,3,4-oxadiazol-2-yl)(4-(7-fluoropyrazolo[1,5-a]pyridin-2-yl)-6,7-dihydro-1H-imidazo[4,5-c]pyridin-5(4H)-yl)methanone]: the AC50 was 500 to 1000 nM.

The same experiment, now with this note: A375 cells expressing human R408W PAH; 24 hrs with compound, then sepiapterin and 13C9,15N-Phenylalanine for 4 hours; 13C-Tyrosine by LC-MS; average where tested multiple times; read-out: AC50.
Turning to `Cc1cccc(-c2nnc(N3CCc4[nH]cnc4[C@@H]3c3cc4c(C(F)F)cccn4n3)o2)n1` [Example 2346, (R)-2-(4-(4-(difluoromethyl)pyrazolo[1,5-a]pyridin-2-yl)-1,4,6,7-tetrahydro-5H-imidazo[4,5-c]pyridin-5-yl)-5-(6-methylpyridin-2-yl)-1,3,4-oxadiazole], the half-maximal activity concentration (AC50) is more than 5000 nM.

Regarding `COCc1ccc2c(C(=O)N3CCc4[nH]cnc4[C@H]3c3cc4c(Cl)cccn4n3)cnn2c1` [Example 1650, (S)-(4-(4-chloropyrazolo [1,5-a]pyridin-2-yl)-6,7-dihydro-1H-imidazo [4,5-c]pyridin-5(4H)-yl)(6-(methoxymethyl)pyrazolo [1,5-a]pyridin-3-yl)methanone], the concentration at half-maximal activity (AC50) fell in the range of 500 to 1000 nM.

Regarding `COCc1ccc2c(C(=O)N3CCc4[nH]cnc4[C@H]3c3cc4c(F)cccn4n3)cnn2c1` [Example 1628, (4-(4-fluoropyrazolo[1,5-a]pyridin-2-yl)-6,7-dihydro-1H-imidazo[4,5-c]pyridin-5(4H)-yl)(6-(methoxymethyl)pyrazolo[1,5-a]pyridin-3-yl)methanone], the half-maximal activity concentration (AC50) was 500 to 1000 nM.

`Fc1ccc(-c2nnc(N3CCc4[nH]cnc4[C@@H]3c3cc4cccc(Cl)n4n3)o2)cc1` [Example 2087, (R)-2-(4-(7-chloropyrazolo [1,5-a]pyridin-2-yl)-1,4,6,7-tetrahydro-5H-imidazo [4,5-c]pyridin-5-yl)-5-(4-fluorophenyl)-1,3,4-oxadiazole]: the half-maximal activity concentration (AC50) was more than 5000 nM.

As for `Cc1nnc(C(=O)N2CCc3[nH]cnc3[C@@H]2c2cc3c(OC(F)(F)F)cccn3n2)o1` [Example 2219, (R)-(5-methyl-1,3,4-oxadiazol-2-yl)(4-(4-(trifluoromethoxy)pyrazolo [1,5-a]pyridin-2-yl)-6,7-dihydro-1H-imidazo[4,5-c]pyridin-5(4H)-yl)methanone], the AC50 is more than 5000 nM.

With `Clc1cccn2nc([C@H]3c4nc[nH]c4CCN3c3nnc(-c4ccccn4)o3)cc12` [Example 1622, (R)-2-(4-(4-chloropyrazolo [1,5-a]pyridin-2-yl)-6,7-dihydro-1H-imidazo[4,5-c]pyridin-5(4H)-yl)-5-(pyridin-2-yl)-1,3,4-oxadiazole], the AC50 lay in the range of 1000 to 5000 nM.

For `O=C(c1nnc(-c2ccccn2)o1)N1CCc2[nH]cnc2[C@@H]1c1cc2c(Br)cccn2n1` [Example 1910, (R)-(4-(4-bromopyrazolo [1,5-a]pyridin-2-yl)-1,4,6,7-tetrahydro-5H-imidazo[4,5-c]pyridin-5-yl)(5-(pyridin-2-yl)-1,3,4-oxadiazol-2-yl)methanone], the AC50 is more than 5000 nM.

With `FC(F)(F)c1ccc(N2CCc3[nH]cnc3[C@H]2c2cc3cccc(Cl)n3n2)nc1` [Example 2136, (S)-4-(7-chloropyrazolo [1,5-a]pyridin-2-yl)-5-(5-(trifluoromethyl)pyridin-2-yl)-4,5,6,7-tetrahydro-1H-imidazo[4,5-c]pyridine], the AC50 was less than 500 nM.

As for `Cn1cc(-c2nc(C3CC3)c(C(=O)N3CCc4[nH]cnc4[C@H]3c3cc4c(C(F)(F)F)cccn4n3)o2)cn1` [Example 2116, (S)-(4-cyclopropyl-2-(1-methyl-1H-pyrazol-4-yl)oxazol-5-yl)(4-(4-(trifluoromethyl)pyrazolo[1,5-a]pyridin-2-yl)-1,4,6,7-tetrahydro-5H-imidazo[4,5-c]pyridin-5-yl)methanone], the AC50 was less than 500 nM.
